SMILES	melting point [°C]
Cc1c(CC(=O)O)c2cc(O)ccc2n1C(=O)N1CCCCC1 [[5-hydroxy-2-methyl-1-(piperidin-1-ylcarbonyl)-1H-indol-3-yl]acetic acid]	235
Cc1c(CC(=O)O)c2cc(O)c(F)cc2n1C(=O)c1cccs1 [[6-fluoro-5-hydroxy-2-methyl-1-(thien-2-ylcarbonyl)-1H-indol-3-yl] acetic acid]	219
COc1cc2c(CC(=O)O)c(C)n(C(=O)C3CCCCC3)c2cc1F [[1-(cyclohexylcarbonyl)-6-fluoro-5-methoxy-2-methyl-1H-indol-3-yl]acetic acid]	104

More lines, now with the values ahead:

melting point [°C]	SMILES
129	COc1ccc2c(c1)c(CC(=O)O)c(C)n2C(=O)C1CCCCC1 [[1-(cyclohexylcarbonyl)-5-methoxy-2-methyl-1H-indol-3-yl]acetic acid]
137	COc1cc2c(CC(=O)O)c(C)n(C(=O)c3cccs3)c2cc1F [[6-fluoro-5-methoxy-2-methyl-1-(thien-2-ylcarbonyl)-1H-indol-3-yl]acetic acid]
